Source: publication PMC7026418, “The kinase polypharmacology landscape of clinical PARP inhibitors” (Scientific Reports, 2020)
Where two headings read alike, the source gives them in different places. Each block holds one compound with its values, some of them ahead of it.

Columns and labels:
Experiment in all cases: biochemical
Design in all cases: DiscoveRx KINOMEscan active site-directed competition binding; percent of control kinase bound to immobilised ligand
[1] = target: T1, TRKC (Homo sapiens, UniProt Q16288)
T1 construct: gene NTRK3

[2] = target: T2, MEK3 (Homo sapiens, UniProt P46734)
T2 construct: gene MAP2K3
T2 sequence (P46734 1-347): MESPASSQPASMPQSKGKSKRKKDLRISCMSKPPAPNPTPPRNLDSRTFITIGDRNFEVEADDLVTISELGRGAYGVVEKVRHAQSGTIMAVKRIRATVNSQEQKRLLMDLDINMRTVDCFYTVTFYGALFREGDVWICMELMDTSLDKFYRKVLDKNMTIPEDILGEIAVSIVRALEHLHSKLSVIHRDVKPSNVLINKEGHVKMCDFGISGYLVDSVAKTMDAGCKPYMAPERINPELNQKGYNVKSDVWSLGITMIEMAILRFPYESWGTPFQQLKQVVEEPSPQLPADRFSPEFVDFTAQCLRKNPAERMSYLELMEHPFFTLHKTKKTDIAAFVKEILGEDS

[3] = target: T3, RPS6KA4(Kin.Dom.1-N-terminal) (Homo sapiens, UniProt O75676)
T3 construct: Kin.Dom.1-N-terminal

[4] = target: T4, MLK2 (Homo sapiens, UniProt Q02779)
T4 construct: gene MAP3K10

[5] = target: HCK (Homo sapiens, UniProt P08631)
[6] = target: MARK1 (Homo sapiens, UniProt Q9P0L2)
[7] = target: T5, AXL (Homo sapiens, UniProt P30530)
T5 sequence (P30530 1-894): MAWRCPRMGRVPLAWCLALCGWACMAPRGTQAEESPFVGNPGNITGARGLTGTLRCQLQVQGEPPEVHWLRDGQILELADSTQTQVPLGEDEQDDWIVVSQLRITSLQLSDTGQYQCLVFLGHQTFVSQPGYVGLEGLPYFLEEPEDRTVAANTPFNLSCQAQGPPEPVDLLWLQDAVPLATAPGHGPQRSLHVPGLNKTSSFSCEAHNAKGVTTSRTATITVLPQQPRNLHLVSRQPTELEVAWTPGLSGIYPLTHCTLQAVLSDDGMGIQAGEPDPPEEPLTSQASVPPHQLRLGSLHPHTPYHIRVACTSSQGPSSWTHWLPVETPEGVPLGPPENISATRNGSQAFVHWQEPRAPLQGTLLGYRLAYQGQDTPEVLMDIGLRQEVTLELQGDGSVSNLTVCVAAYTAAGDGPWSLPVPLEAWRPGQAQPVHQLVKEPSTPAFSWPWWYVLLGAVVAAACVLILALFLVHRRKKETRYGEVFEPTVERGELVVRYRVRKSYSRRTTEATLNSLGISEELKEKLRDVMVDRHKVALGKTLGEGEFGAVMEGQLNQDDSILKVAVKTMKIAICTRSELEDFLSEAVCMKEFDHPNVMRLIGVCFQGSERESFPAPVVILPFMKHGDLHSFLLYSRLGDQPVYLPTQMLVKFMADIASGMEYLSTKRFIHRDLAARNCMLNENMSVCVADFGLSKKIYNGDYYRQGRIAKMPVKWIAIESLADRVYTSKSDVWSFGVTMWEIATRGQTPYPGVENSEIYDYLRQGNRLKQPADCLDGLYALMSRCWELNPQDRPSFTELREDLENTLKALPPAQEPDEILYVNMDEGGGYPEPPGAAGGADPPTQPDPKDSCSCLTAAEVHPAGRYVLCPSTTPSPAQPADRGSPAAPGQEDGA

[8] = target: T6, PLK4 (Homo sapiens, UniProt O00444)
T6 sequence (O00444 1-970): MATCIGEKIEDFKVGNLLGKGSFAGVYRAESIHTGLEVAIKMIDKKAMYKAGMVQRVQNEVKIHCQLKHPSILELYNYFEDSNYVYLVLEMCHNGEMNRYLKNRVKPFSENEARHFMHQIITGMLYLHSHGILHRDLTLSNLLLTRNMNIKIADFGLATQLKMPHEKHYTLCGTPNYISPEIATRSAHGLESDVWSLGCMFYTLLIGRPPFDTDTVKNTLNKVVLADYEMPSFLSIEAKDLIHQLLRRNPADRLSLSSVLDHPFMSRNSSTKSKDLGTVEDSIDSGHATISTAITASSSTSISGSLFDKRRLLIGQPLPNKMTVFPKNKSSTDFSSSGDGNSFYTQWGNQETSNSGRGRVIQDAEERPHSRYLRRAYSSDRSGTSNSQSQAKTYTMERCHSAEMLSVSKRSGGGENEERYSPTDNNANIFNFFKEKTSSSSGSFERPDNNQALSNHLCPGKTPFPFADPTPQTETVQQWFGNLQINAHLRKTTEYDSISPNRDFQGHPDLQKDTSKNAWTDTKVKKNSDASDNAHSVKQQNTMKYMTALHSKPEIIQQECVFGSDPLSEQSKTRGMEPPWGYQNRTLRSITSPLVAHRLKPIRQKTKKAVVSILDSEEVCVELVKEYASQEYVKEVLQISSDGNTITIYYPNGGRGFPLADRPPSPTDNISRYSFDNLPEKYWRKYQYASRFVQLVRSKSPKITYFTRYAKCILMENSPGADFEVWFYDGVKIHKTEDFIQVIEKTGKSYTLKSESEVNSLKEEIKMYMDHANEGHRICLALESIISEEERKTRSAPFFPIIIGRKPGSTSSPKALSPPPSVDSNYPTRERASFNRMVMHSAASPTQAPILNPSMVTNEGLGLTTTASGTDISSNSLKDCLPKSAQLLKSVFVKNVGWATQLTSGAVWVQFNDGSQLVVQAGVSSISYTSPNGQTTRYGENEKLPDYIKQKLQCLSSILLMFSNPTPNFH

[9] = read-out: Niraparib (MK-4827) / %Ctrl @ 10000nM
[10] = read-out: Rucaparib / %Ctrl @ 10000nM, binding competition, % of control
[11] = read-out: Olaparib / %Ctrl @ 10000nM
[12] = read-out: Talazoparib (BMN 673) / %Ctrl @ 10000nM

Sequence of MARK1 (Q9P0L2 whole entry): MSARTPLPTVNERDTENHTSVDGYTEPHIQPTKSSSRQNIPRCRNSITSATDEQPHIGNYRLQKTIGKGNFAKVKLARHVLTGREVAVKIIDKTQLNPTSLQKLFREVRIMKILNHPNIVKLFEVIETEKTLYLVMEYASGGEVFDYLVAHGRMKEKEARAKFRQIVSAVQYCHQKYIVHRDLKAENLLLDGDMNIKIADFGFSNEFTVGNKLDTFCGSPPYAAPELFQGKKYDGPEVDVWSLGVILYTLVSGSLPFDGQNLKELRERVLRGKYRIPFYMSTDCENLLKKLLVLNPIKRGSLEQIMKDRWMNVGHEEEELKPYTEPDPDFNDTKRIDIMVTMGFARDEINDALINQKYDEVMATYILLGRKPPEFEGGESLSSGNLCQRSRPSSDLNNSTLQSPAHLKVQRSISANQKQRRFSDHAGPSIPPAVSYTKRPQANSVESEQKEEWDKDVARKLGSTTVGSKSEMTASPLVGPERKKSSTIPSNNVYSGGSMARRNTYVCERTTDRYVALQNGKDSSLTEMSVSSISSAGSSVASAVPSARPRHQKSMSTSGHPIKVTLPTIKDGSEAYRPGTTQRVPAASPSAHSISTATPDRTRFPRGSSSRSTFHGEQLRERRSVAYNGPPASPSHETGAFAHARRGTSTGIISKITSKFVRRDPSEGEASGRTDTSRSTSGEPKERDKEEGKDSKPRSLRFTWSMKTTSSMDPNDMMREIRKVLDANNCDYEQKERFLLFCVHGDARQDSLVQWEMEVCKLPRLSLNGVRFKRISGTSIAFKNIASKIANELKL
T1 sequence (Q16288 whole entry): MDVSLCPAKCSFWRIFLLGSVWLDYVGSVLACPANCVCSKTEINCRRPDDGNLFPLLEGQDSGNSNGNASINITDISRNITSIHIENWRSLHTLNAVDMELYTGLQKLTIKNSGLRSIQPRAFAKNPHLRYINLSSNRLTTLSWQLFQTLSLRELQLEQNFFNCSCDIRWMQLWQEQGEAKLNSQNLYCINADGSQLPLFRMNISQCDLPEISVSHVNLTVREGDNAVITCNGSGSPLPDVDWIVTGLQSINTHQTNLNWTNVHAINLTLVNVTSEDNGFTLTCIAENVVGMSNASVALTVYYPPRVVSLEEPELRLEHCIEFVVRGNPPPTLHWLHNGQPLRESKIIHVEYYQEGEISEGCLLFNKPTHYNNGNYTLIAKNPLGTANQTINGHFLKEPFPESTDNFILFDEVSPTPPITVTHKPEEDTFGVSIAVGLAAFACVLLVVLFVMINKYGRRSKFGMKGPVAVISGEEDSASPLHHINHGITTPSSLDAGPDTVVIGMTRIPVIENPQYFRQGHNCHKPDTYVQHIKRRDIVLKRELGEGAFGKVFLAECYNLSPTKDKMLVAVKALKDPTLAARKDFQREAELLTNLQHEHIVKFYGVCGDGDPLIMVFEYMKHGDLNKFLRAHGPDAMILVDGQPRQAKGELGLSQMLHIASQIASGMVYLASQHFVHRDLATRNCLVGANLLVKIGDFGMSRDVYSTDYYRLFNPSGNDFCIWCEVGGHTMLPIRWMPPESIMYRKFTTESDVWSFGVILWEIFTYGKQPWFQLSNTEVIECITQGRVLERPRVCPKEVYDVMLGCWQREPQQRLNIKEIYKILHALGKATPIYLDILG
T4 sequence (Q02779 whole entry): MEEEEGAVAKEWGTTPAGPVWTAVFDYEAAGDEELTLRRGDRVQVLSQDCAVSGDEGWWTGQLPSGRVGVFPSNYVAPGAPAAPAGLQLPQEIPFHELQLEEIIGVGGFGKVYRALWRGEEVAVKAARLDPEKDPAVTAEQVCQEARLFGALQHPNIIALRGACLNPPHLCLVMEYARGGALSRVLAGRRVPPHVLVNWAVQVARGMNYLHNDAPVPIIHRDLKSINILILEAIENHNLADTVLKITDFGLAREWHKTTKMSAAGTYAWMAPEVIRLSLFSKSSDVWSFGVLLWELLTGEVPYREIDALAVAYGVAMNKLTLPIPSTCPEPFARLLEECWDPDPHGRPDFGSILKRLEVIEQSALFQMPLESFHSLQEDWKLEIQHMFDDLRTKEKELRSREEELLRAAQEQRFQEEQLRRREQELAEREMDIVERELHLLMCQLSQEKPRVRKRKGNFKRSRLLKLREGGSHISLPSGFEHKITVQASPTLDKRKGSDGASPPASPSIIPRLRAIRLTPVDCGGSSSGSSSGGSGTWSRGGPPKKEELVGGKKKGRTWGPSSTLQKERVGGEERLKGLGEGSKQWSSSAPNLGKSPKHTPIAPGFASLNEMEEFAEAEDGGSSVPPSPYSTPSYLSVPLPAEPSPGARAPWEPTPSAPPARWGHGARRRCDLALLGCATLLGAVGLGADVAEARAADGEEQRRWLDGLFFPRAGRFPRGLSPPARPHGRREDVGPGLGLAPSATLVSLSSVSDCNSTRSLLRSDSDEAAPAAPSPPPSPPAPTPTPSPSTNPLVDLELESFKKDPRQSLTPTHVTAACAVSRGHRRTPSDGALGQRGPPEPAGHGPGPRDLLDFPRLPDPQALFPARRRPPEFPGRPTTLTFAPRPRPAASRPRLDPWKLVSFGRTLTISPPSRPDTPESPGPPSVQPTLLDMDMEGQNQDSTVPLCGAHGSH
Sequence of HCK (P08631 whole entry): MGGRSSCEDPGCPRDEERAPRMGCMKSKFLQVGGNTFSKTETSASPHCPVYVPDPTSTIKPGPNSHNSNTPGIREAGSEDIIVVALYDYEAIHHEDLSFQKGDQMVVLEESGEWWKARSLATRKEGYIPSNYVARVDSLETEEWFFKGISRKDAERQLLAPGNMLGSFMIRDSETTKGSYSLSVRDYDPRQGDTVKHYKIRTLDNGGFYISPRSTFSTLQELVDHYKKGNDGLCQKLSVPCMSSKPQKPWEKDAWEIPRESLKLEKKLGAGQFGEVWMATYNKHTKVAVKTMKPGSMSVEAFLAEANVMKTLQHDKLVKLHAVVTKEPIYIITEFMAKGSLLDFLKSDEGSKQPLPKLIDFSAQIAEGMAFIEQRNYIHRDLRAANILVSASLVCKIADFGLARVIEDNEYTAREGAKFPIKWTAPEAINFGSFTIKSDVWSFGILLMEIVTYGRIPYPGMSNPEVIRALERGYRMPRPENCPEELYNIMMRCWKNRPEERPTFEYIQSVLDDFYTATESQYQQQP
T3 sequence (O75676 whole entry): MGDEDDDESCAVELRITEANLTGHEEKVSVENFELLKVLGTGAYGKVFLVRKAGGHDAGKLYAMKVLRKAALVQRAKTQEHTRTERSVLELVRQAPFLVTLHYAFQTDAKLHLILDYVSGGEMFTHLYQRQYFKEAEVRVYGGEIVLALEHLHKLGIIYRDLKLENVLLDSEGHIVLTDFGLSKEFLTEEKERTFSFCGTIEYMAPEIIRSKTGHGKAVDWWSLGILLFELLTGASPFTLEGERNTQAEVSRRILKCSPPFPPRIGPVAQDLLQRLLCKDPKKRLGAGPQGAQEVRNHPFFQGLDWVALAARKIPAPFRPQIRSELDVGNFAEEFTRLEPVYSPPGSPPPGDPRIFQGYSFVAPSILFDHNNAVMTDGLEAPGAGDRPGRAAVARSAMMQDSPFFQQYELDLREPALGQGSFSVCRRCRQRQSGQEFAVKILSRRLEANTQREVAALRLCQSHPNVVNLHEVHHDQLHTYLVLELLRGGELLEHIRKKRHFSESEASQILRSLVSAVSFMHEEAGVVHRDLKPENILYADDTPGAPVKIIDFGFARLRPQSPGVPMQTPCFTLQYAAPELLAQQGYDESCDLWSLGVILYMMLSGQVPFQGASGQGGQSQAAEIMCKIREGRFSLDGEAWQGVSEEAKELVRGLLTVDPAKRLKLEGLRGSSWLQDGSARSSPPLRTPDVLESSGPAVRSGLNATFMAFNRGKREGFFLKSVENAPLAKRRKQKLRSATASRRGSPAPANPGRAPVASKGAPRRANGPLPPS

SMILES: NC(=O)c1cccc2cn(-c3ccc([C@@H]4CCCNC4)cc3)nc12 [Niraparib]
percent of control binding at 10 µM [1, 9]: 95%
percent of control binding at 10 µM [2, 9]: 80%
percent of control binding at 10 µM [3, 9]: 100%
percent of control binding at 10 µM [4, 9]: 69%
percent of control binding at 10 µM [5, 9]: 70%
percent of control binding at 10 µM [6, 9]: 93%
percent of control binding at 10 µM [7, 9]: 59%
percent of control binding at 10 µM [8, 9]: 56%

percent of control binding at 10 µM [1, 10]: 88%
percent of control binding at 10 µM [2, 10]: 83%
percent of control binding at 10 µM [3, 10]: 100%
percent of control binding at 10 µM [4, 10]: 63%
percent of control binding at 10 µM [5, 10]: 74%
percent of control binding at 10 µM [6, 10]: 85%
percent of control binding at 10 µM [7, 10]: 82%
percent of control binding at 10 µM [8, 10]: 99%
SMILES: CNCc1ccc(-c2[nH]c3cc(F)cc4c3c2CCNC4=O)cc1 [Rucaparib]

percent of control binding at 10 µM [1, 11]: 92%
percent of control binding at 10 µM [2, 11]: 85%
percent of control binding at 10 µM [3, 11]: 100%
percent of control binding at 10 µM [4, 11]: 97%
percent of control binding at 10 µM [5, 11]: 96%
percent of control binding at 10 µM [6, 11]: 93%
percent of control binding at 10 µM [7, 11]: 100%
percent of control binding at 10 µM [8, 11]: 91%
SMILES: O=C(c1cc(Cc2n[nH]c(=O)c3ccccc23)ccc1F)N1CCN(C(=O)C2CC2)CC1 [Olaparib]

percent of control binding at 10 µM [1, 12]: 100%
percent of control binding at 10 µM [2, 12]: 65%
percent of control binding at 10 µM [3, 12]: 61%
percent of control binding at 10 µM [4, 12]: 70%
percent of control binding at 10 µM [5, 12]: 86%
percent of control binding at 10 µM [6, 12]: 89%
percent of control binding at 10 µM [7, 12]: 100%
percent of control binding at 10 µM [8, 12]: 72%
SMILES: Cn1ncnc1[C@H]1c2n[nH]c(=O)c3cc(F)cc(c23)N[C@@H]1c1ccc(F)cc1 [Talazoparib]
